Some test systems named below: ACHN renal; DU-145 prostate; HT29 colon; NCI/ADR-RES ovarian; OVCAR-5 ovarian; PC-3 prostate; RXF 393 renal; SF-295 CNS; SK-MEL-2 melanoma; UACC-62 melanoma.
What all share (experiment): NCI tumour cell line growth inhibition, 48 h

Structures are written as SMILES.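 Interpolation was linear, between the two tested concentrations surrounding the appropriate level; five concentrations were tested over 48 hours in 96-well plates. Abbreviation: GI50, concentration required for 50% inhibition of growth. TGI: concentration producing complete growth inhibition.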

Take `O=C(c1cccs1)c1c(C(F)(F)F)n([O-])c2ccc(F)cc2[n+]1=O`: the GI50 in the test on ACHN renal was 1.5 µM; in the test with DU-145 prostate it was 1.15 µM; in the test with HT29 colon it was 0.868 µM; in the test on NCI/ADR-RES ovarian, 2.36 µM; in the test on OVCAR-5 ovarian it was 1.76 µM; in the test on PC-3 prostate, 0.961 µM. Further, the GI50 is 1.2 µM with RXF 393 renal, 1.76 µM in the test with SF-295 CNS, 0.841 µM in the test on SK-MEL-2 melanoma and 1.41 µM in the test with UACC-62 melanoma. Moreover, the TGI was 2.82 µM in the test with ACHN renal; 3.12 µM in the test with DU-145 prostate; 2.47 µM with HT29 colon; 6.33 µM in the test on NCI/ADR-RES ovarian; 3.21 µM in the test on OVCAR-5 ovarian; 2.33 µM with PC-3 prostate. The TGI in the test with RXF 393 renal was determined as 2.74 µM; in the test on SF-295 CNS it was 3.58 µM; in the test with SK-MEL-2 melanoma, 2.37 µM; with UACC-62 melanoma, 2.81 µM.
For the compound `O=c1[nH]c(SCc2c(Cl)c(Cl)c(Cl)c(Cl)c2Cl)nc(=S)[nH]1`, the TGI in the test with ACHN renal was above 100 µM; with DU-145 prostate it was above 100 µM; in the test with HT29 colon, above 63 µM; in the test with NCI/ADR-RES ovarian, above 100 µM; in the test with OVCAR-5 ovarian, above 100 µM; in the test with PC-3 prostate, above 100 µM. Also, the TGI was 35.5 µM with RXF 393 renal, above 100 µM in the test with SF-295 CNS, above 100 µM in the test on SK-MEL-2 melanoma and above 100 µM in the test with UACC-62 melanoma.
`COc1cc2c3c(n(C)c(=O)c2cc1OC)-c1cc2c(cc1/C3=C\CCCBr)OCO2`: the GI50 is 7.37 µM with ACHN renal; above 59.6 µM in the test with DU-145 prostate; above 100 µM with HT29 colon; 19.3 µM in the test with OVCAR-5 ovarian; above 95.2 µM with PC-3 prostate; 6.35 µM in the test on RXF 393 renal. Besides, the GI50 in the test on SF-295 CNS was 9.16 µM; with SK-MEL-2 melanoma, 21.3 µM; in the test with UACC-62 melanoma, 7.55 µM. The TGI is 25.3 µM in the test with ACHN renal; above 100 µM with DU-145 prostate; above 100 µM with HT29 colon; above 100 µM in the test with NCI/ADR-RES ovarian; above 70.6 µM in the test on OVCAR-5 ovarian; above 100 µM in the test on PC-3 prostate. Moreover, the TGI is 16.8 µM in the test with RXF 393 renal, 30.8 µM with SF-295 CNS, 69.4 µM in the test with SK-MEL-2 melanoma and 28.9 µM in the test on UACC-62 melanoma.
